In one data set the test system is Mus musculus. Particulars: for LD50: acute.
In data set [1] the test system is Rattus norvegicus.
Data set [2] relates to Rattus norvegicus. The conditions noted are these: subchronic, duration: 13 weeks, oral, gavage, M/F, Fischer 344.
For data set [3], the system named is Rattus norvegicus. The conditions noted are these: oral.
Setting [4] is: subchronic, M/F, forestomach lesions, kidney toxicity.
Where [5] appears, read: chronic, duration: 91 days, oral, gavage.
Where [6] appears, read: chronic, duration: 103 weeks, oral, diet, B6C3F1.
The mark [7] stands for this setting: subchronic, duration: 12 weeks, oral, diet, M, B6C3F1.
The mark [8] stands for this setting: chronic, duration: 103 weeks, oral, diet, F, Fischer 344.
Setting [9] is: chronic, duration: 103 weeks, oral, diet, M, Fischer 344.
[10] abbreviates: developmental, duration: 10 days, oral, gavage, Crl:CD(SD).
Setting [11] is: subchronic, duration: 12 weeks, oral, diet, F, Fischer 344.
[12] abbreviates: subchronic, duration: 12 weeks, oral, diet, M, Fischer 344.
Setting [13] is: subchronic, M/F, clinical sign (e.g., hunched postures) and reduced body weight.
[14] abbreviates: chronic, duration: 2 years, diet, M/F, reduced body weight gain (males) increased food and water consumption (males) and females.
The mark [15] stands for this setting: developmental, M/F, reduced body weight in parents and pups during lactation.

Converted amounts (≈) assume the structure as drawn. “And” between values parts separate entries of the source, which are not always exact repeats. Equal values may be shown once.

This is an account of results in EPA's ToxValDB 9.5.

Consider `NNS(=O)(=O)c1ccc(Oc2ccc(S(=O)(=O)NN)cc2)cc1` [4,4'-Oxybis(benzenesulfohydrazide)], for which the median lethal dose (LD50) (as a rule, the dose at which mortality reaches 50%) in the data set on Mus musculus (injection, Intraperitoneal) was > 5000 mg/kg; in the data set on Rattus norvegicus [1] (acute, oral) it was 2300 mg/kg; in the data set with Rattus norvegicus [1] (acute, oral, albino), > 5200 mg/kg. In the data set on Rattus norvegicus [1] (chronic, duration: 4 months, oral, gavage), the lowest observed adverse effect level (LOAEL) (commonly the lowest tested level that showed an adverse finding) came to 36 mg/kg-day.
`O=Cc1ccccc1` [Benzaldehyde]: in the data set on Rattus norvegicus [2] (Deaths + Body Weight Changes: decrease + Histopathology: Brain/cerebellum -Degeneration Brain/cerebellum -Necrosis Brain/cerebellum -…), the NOEL came to 200 mg/kg-day. In addition, in the data set with Rattus norvegicus [3] (setting [4]), the LOAEL is 400 mg/kg-day; the NOEL is 143 mg/kg-day and 200 mg/kg-day.
Regarding `CCCCC(CC)COC(=O)CCCCCCCCC(=O)OCC(CC)CCCC` (stereo not drawn) [Bis(2-ethylhexyl) decanedioate], the LD50 worked out at 9500 mg/kg in the data set with Mus musculus (oral, gavage) and 17000 mg/kg in the data set on Rattus norvegicus [1] (acute, oral, gavage).
For the molecule `O=C([O-])c1[nH]n(-c2ccc(S(=O)(=O)[O-])cc2)c(=O)c1N=Nc1ccc(S(=O)(=O)[O-])cc1.[Na+].[Na+].[Na+]` [C.I. Acid Yellow 23], the “NOAEL (% diet)” value amounted to 5 with Mus musculus (subchronic, duration: 3 months, oral, diet, CD1); 5 in the data set on Rattus norvegicus [1] (chronic, duration: 113 weeks, oral, diet); 5 with Rattus norvegicus [1] (reproduction developmental, duration: 114 weeks, oral, diet). The no observed adverse effect level (NOAEL) (as a rule, the highest tested level that showed no adverse finding) is 9750 mg/kg-day in the data set on Mus musculus (subchronic, duration: 3 months, oral, diet, F, CD1); 8100 mg/kg-day in the data set with Mus musculus (subchronic, duration: 3 months, oral, diet, M, CD1); 3350 mg/kg-day with Rattus norvegicus [1] (chronic, duration: 113 weeks, oral, diet, F); 2640 mg/kg-day in the data set on Rattus norvegicus [1] (chronic, duration: 113 weeks, oral, diet, M); > 1000 mg/kg-day in the data set with Rattus norvegicus [1] (developmental, duration: 19 days, oral, gavage, Osborne-Mendel); 2640 mg/kg-day and 3350 mg/kg-day with Rattus norvegicus [1] (reproduction developmental, duration: 114 weeks, oral, diet, M). Besides, the no-observed-adverse-effect level (NOAEL) in the data set with Rattus norvegicus [1] (reproduction developmental, duration: 19 days, oral, gavage, F, Osborne-Mendel) was > 1000 mg/kg-day.
Turning to `Cc1cc(N=Nc2c(O)ccc3ccccc23)c(S(=O)(=O)[O-])cc1Cl.Cc1cc(N=Nc2c(O)ccc3ccccc23)c(S(=O)(=O)[O-])cc1Cl.[Ba+2]` [C.I. Pigment Red 53], the NOAEL in the data set with Mus musculus (setting [5]) was 90 mg/kg-day; with Rattus norvegicus [1] (setting [5]), 25 mg/kg-day; in the data set with Rattus norvegicus [1] (reproduction developmental, duration: 30 months, oral, gavage, F) it was < 10000 ppm; in the data set with Rattus norvegicus [1] (reproduction developmental, duration: 30 months, oral, gavage, generation: F0) it was > 10000 ppm; with Rattus norvegicus [1] (reproduction developmental, duration: 30 months, oral, gavage, generation: F1) it was > 10000 ppm.
For the molecule `O=S(=O)([O-])c1ccc(N=Nc2c(O)ccc3cc(S(=O)(=O)[O-])ccc23)cc1.[Na+].[Na+]` [FD&C Yellow 6], the LD50 is ≥ 4600 mg/kg and ≤ 5500 mg/kg with Mus musculus (injection, intraperitoneal, ICI Alderley Park Strain); > 6000 mg/kg in the data set on Mus musculus (oral, ICI Alderley Park Strain); 3800 mg/kg in the data set on Rattus norvegicus [1] (acute, injection, intraperitoneal, Carworth); > 10000 mg/kg in the data set on Rattus norvegicus [1] (acute, oral, Carworth); > 2000 mg/kg in the data set on Rattus norvegicus [1] (acute, oral, gavage, Wistar). Moreover, the LOAEL was 4620 mg/kg-day with Mus musculus (setting [6]); 19700 mg/kg-day with Mus musculus (setting [7]); > 1950 mg/kg-day in the data set on Rattus norvegicus [1] (setting [8]); 1950 mg/kg-day in the data set with Rattus norvegicus [1] (setting [9]); 300 mg/kg-day in the data set on Rattus norvegicus [1] (setting [10]); 1200 mg/kg-day in the data set with Rattus norvegicus [1] (setting [11]). The LOAEL in the data set with Rattus norvegicus [1] (setting [12]) stood at 2400 mg/kg-day. Moreover, the NOAEL in the data set with Mus musculus (setting [6]) was 2310 mg/kg-day; in the data set on Mus musculus (setting [7]), 9850 mg/kg-day; with Rattus norvegicus [1] (setting [8]), 1950 mg/kg-day; with Rattus norvegicus [1] (setting [9]), 975 mg/kg-day; in the data set with Rattus norvegicus [1] (setting [10]), 100 mg/kg-day; with Rattus norvegicus [1] (reproduction developmental, duration: 126 days, oral, diet, Charles River Albino CD (R), generation: F0) it was 1500 mg/kg-day. Also, the no-observed-adverse-effect level (NOAEL) stood at 1500 mg/kg-day in the data set with Rattus norvegicus [1] (reproduction developmental, duration: 126 days, oral, diet, Charles River Albino CD (R), generation: F1); 500 mg/kg-day in the data set on Rattus norvegicus [1] (reproduction developmental, oral, diet, Crl:CD(SD)); 576 mg/kg-day in the data set with Rattus norvegicus [1] (setting [11]); 1200 mg/kg-day in the data set on Rattus norvegicus [1] (setting [12]).
Consider `CCN(CC)c1ccccc1` [N,N-Diethylaniline], for which the LD50 in the data set with Mus musculus (injection, Intraperitoneal) was 870 mg/kg; with Rattus norvegicus [1] (acute, dermal) it was 5000 mg/kg; in the data set with Rattus norvegicus [1] (acute, oral), 720 mg/kg; in the data set on Rattus norvegicus [1] (acute, oral, gavage, Wistar), 606 mg/kg. For the same molecule, in the data set on Rattus norvegicus [1] (acute, inhalation), the LC50 – broadly, the concentration that kills 50% of the test population – stood at 1.92 µg/mL (≈ 12.9 µM). In addition, in the data set with Rattus norvegicus [1] (short-term, duration: 28 days, oral, gavage, Wistar), the LOAEL stood at 10 mg/kg-day.
As for `CC(=O)CC(=O)N(C)C` [N,N-Dimethylacetoacetamide], the LD50 in the data set with Mus musculus (oral, gavage) was ≥ 3200 mg/kg; in the data set on Rattus norvegicus [1] (acute, oral, gavage) it was ≥ 3200 mg/kg.
As to `CCCCCCCCCCCCCCCCCC(=O)[O-].CCCCCCCCCCCCCCCCCC(=O)[O-].[Ba+2]` [Octadecanoic acid, barium salt], the LD50 with Mus musculus (oral) stood at 1830 mg/kg.
For `[N-]=[N+]=[N-].[Na+]` [Sodium azide], the NOEL in the data set with Rattus norvegicus [2] (Deaths + Clinical Observation: Hunched posture Ruffled fur Lethargy Decreased appetite Impaired breathing + Body Weight Changes: decrease + …) is < 1.25 mg/kg-day. Besides, in the data set on Rattus norvegicus [3] (setting [13]), the LOAEL was 10 mg/kg-day and the NOAEL was found to be 5 mg/kg-day.
With `CC1(C)[C@H](C(=O)O[C@H](C#N)c2cccc(Oc3ccccc3)c2)[C@@H]1C(Br)C(Br)(Br)Br` (stereo partly drawn) [Tralomethrin], in the data set with Rattus norvegicus [3] (setting [14]), the LEL worked out at 3 mg/kg-day and the NOEL was determined as 0.75 mg/kg-day. Besides, in the data set on Rattus norvegicus [3] (setting [15]), the LEL came to 3 mg/kg-day and the NOEL was determined as 0.75 mg/kg-day.
In the data set with Rattus norvegicus [3] (chronic, reduced hair cystine), `[O]=[V](=[O])[O][V](=[O])=[O]` [Vanadium oxide (V2O5)] showed an NOAEL of 0.89 mg/kg-day.
